Read-outs that look alike come from different tables or passages of the source. Where no end group is shown, it is not given here.
Tests used:
[1] = test system: Staphylococcus haemolyticus strains; test: Spot-on-lawn inhibition assay; assay type: cell-based; conditions: six S. haemolyticus strains 4068–4073; 0.04, 0.2 and 1.0 mg/ml, 5 µl spotted
Method: (§1) A semi-quantitative spot-on-lawn inhibitory assay was performed on 51 bacterial indicator strains (Table S1) to determine the bacteriocins inhibition spectra. Overnight cultures were diluted 1:100 in BHI soft agar and distributed on BHI agar plates. Once solidified, bacteriocins with various concentrations were applied on designated spots. The plates were incubated at appropriate temperature O/N and inhibition zones were measured the following day. To determine minimal inhibitory concentration (MIC50) of H1 against clinical S. haemolyticus isolates (Table S2), as well as strains heterologously expressing RseP (Table S4), the microtiterplate antimicrobial assay was performed as previously described[41],[79]. MIC50 was defined as the minimal bacteriocin concentration needs to inhibit the growth of a bacterial strain by at least 50%.

[2] = test system: planktonic S. haemolyticus; assay type: cell-based, Staphylococcus haemolyticus
Method: Synergistic interactions between antimicrobials were determined using the fractional inhibition concentration (FIC) as previously described. The FIC values were determined using a mirotiterplate checkerboard assay. Briefly, antimirobial A was applied in wells A1–H1 then diluted two-fold in wells 2–12. In a second microtiter plate, antimicrobial B was applied in wells A1–A12, then diluted two folds in wells B–H. Fifty μl of the serial diluted antimirobial A was transferred to the wells of a third microtiter plate, except for wells H1–H12. Similarly, 50 μl of the serial diluted antimicrobial B was transferred to the same microtiter plate, except for wells A1–A12. Wells H1-12 and wells A1-12 contained only one of the antimicrobials and was used to estimate the MIC value of the pure substance. After combining the antimicrobials, 100 μl of a 1:25 diluted O/N of S. haemolyticus was transferred to each well of the third microplate, while 50 μl of medium was added to wells H1-12 and A1-12. […] FIC values were calculated as follows: FIC = FICa + FICb + FICc, where the FICa means MIC of A in combination/MIC of A alone, FICb means MIC of B in combination/MIC of B, and FICc means MIC of C in combination/MIC of C alone. Effects were considered as synergistic if FIC was ≤ 0.5 for two components mixture[81] and ≤ 0.75 for three components mixture.

[3] = test system: clinical and commensial S. haemolyticus isolates; assay type: cell-based, Staphylococcus haemolyticus; conditions: 5 h
Method: as §1

[4] = test system: L. plantarum WCFS1 strains (with or without S. haemolyticus RseP); assay type: cell-based, Lactobacillus plantarum
Method: as §1
rseP (Uniprot: Q4L5W4) derived from S. haemolyticus 7067_4_21 was heterologously expressed in the naturally H1-resistant L. plantarum WCFS1[36] using the vector pSIP expression system[84],[85]. First, pLp1261_InvS, a pSIP401 derivative[84],[86], was linearized using FastDigest Restrictiction Enzymes NdeI and Acc65I (ThermoFisher Scientific) to isolate the vector part. Second, rseP was amplified by PCR using specially designed In-Fusion Primes (Table S6), giving amplicons with complementary ends to the linearized vector. The In-Fusion HD cloning Kit (Takara Bio) was used to fuse rseP into the linearized vector, yielding pSIP401_SHRseP. The plasmid was subsequently transformed to E.coli TOP10 (ThermoFischer Scientific). Plasmid DNA from E. coli was isolated using NucleoSpin Plasmid Kit (Macherey–Nagel). The DNA sequence of all PCR amplified fragments was verified by sequencing at Eurofins GATC, Germany, and before being electroporated into L. plantarum WCSF1 following the procedure described by Aukrust and Blom[87].

[5] = S. haemolyticus 4068, planktonic cells, 5 h exposure
[6] = S. haemolyticus 4068, planktonic cells, 24 h exposure
[7] = S. haemolyticus 4068, planktonic cells, 48 h exposure
[8] = S. haemolyticus 4069, planktonic cells, 5 h exposure
[9] = S. haemolyticus 4069, planktonic cells, 24 h exposure
[10] = S. haemolyticus 4069, planktonic cells, 48 h exposure
[11] = S. haemolyticus 4070, planktonic cells, 5 h exposure
[12] = S. haemolyticus 4070, planktonic cells, 24 h exposure
[13] = S. haemolyticus 4070, planktonic cells, 48 h exposure
[14] = S. haemolyticus 4071, planktonic cells, 5 h exposure
[15] = S. haemolyticus 4071, planktonic cells, 24 h exposure
[16] = S. haemolyticus 4071, planktonic cells, 48 h exposure
[17] = S. haemolyticus 4072, planktonic cells, 5 h exposure
[18] = S. haemolyticus 4072, planktonic cells, 24 h exposure
[19] = S. haemolyticus 4072, planktonic cells, 48 h exposure
[20] = S. haemolyticus 4073, planktonic cells, 5 h exposure
[21] = S. haemolyticus 4073, planktonic cells, 24 h exposure
[22] = S. haemolyticus 4073, planktonic cells, 48 h exposure

garvicin KS [GarKS]
Inhibition zones at three concentrations [1]: some inhibition was seen only at the highest concentration
MIC, individual component [2, 5]: 6.5 µg/mL
MIC, individual component [2, 6]: 24 µg/mL
MIC, individual component [2, 7]: 25 µg/mL
MIC, individual component [2, 8]: 3.3 µg/mL
MIC, individual component [2, 9]: 13 µg/mL
MIC, individual component [2, 10]: 26 µg/mL
MIC, individual component [2, 11]: 12 µg/mL
MIC, individual component [2, 12]: 48 µg/mL
MIC, individual component [2, 13]: 51 µg/mL
MIC, individual component [2, 14]: 12.5 µg/mL
MIC, individual component [2, 15]: 51 µg/mL
MIC, individual component [2, 16]: 100 µg/mL
MIC, individual component [2, 17]: 23.6 µg/mL
MIC, individual component [2, 18]: 49 µg/mL
MIC, individual component [2, 19]: 52 µg/mL
MIC, individual component [2, 20]: 12.5 µg/mL
MIC, individual component [2, 21]: 51 µg/mL
MIC, individual component [2, 22]: 51 µg/mL

SCTTCVCTCSCCTT [MP1, micrococcin P1]
Inhibition zones at three concentrations [1]: clear inhibition zones at all three concentrations
MIC, individual component [2, 5]: 0.02 µg/mL
MIC, individual component [2, 6]: 0.023 µg/mL
MIC, individual component [2, 7]: 0.078 µg/mL
MIC, individual component [2, 8]: 0.15 µg/mL
MIC, individual component [2, 9]: > 10 µg/mL
MIC, individual component [2, 10]: > 10 µg/mL
MIC, individual component [2, 11]: 0.02 µg/mL
MIC, individual component [2, 12]: 0.33 µg/mL
MIC, individual component [2, 13]: 0.13 µg/mL
MIC, individual component [2, 14]: 0.043 µg/mL
MIC, individual component [2, 15]: > 10 µg/mL
MIC, individual component [2, 16]: > 10 µg/mL
MIC, individual component [2, 17]: 0.039 µg/mL
MIC, individual component [2, 18]: > 10 µg/mL
MIC, individual component [2, 19]: 0.63 µg/mL
MIC, individual component [2, 20]: 0.022 µg/mL
MIC, individual component [2, 21]: 0.072 µg/mL
MIC, individual component [2, 22]: 0.14 µg/mL

MKFKFNPTGTIVKKLTQYEINWYKQQYGRYPWERPVA [H1]
MIC50 against the different S. haemolyticus strains [3]: 100 to 780 µg/mL
Minimal inhibitory concentration (MIC) ([4]; L. plantarum WCFS1): > 50 µg/mL
Minimal inhibitory concentration (MIC) ([4]; L. plantarum WCFS1/pEV, expressing empty vector): > 50 µg/mL
Minimal inhibitory concentration (MIC) ([4]; L. plantarum WCFS1/pSIP401_SHRseP, expressing RseP from S. haemolyticus 7067_4_21): 0.39 µg/mL
MIC50 over the tested strains ([2]; planktonic, 5 h): 0.78 µg/mL
MIC, individual component ([2]; planktonic, 24 h): 0.78 µg/mL

Reference: article PMC8260761, “A bacteriocin-based treatment option for Staphylococcus haemolyticus biofilms” (Scientific Reports, 2021)
